This assay addresses T1, CIII2CIV2 (Complex III2IV2, cytochrome bcc-aa3 supercomplex) (Mycolicibacterium smegmatis, UniProt A0R052+I7GD61).
T1 construct: gene MSMEG_4263; CIII2CIV2 in IMVs from strain QcrB-3×FLAG (3×FLAG tag at the C terminus of the QcrB subunit); with other subunits of the CIII2CIV2 supercomplex
Description: succinate-driven acidification of inverted membrane vesicles (ACMA fluorescence); no inhibition of ATP-driven acidification. The format is biochemical.

This passage reports IC50 results from paper PMC10770618, “A simple assay for inhibitors of mycobacterial oxidative phosphorylation” (The Journal of Biological Chemistry, 2023).

pIC50: −log10 of the molar value. Where two headings read alike, the source gives them in different places.

Usually pIC50 stands for the IC50 on a negative log10 scale, so that one unit is a factor of ten. As for `Cc1c(OCC(F)(F)F)ccnc1CSc1nc2ccccc2[nH]1` [LPZS, lansoprazole sulfide], the pIC50 (read-out: IC50) was approximately 6.07. On to `CCc1nc2ccc(Cl)cn2c1C(=O)NCc1ccc(N2CCC(c3ccc(OC(F)(F)F)cc3)CC2)cc1` [Q203, telacebec], for which the pIC50 is approximately 6.85.
